Source: patent US5521155A, “Amides of teicoplanin compounds” (Gruppo Lepetit S.p.A, priority 1985, dated 1996)
Converted amounts (≈) assume the structure as drawn.

Experiments:
[1] = Isoelectric point (pI) by isoelectrofocusing with bioautography detection; assay type: physicochemical; details: IEF technique, polyacrylamide gel
Text: The isoelectrofocusing (IEF) technique coupled with bioautography detection has been used for the determination of the pI of representative compounds of the invention using the following materials: AMPHOLINE carrier ampholytes (40% w/v) were purchased from LKB Produketer AB, Bromma, Sweden. Acrylamide, N,N'-methylenbisacrylamide (BIS), N,N,N',N'-tetramethylethylenediamine (TEMED) and ammonium persulfate were from Bio Rad Laboratorie, Richmond, Calif., USA. Glycerol and Antibiotic agar N. 1 (Grove and Randall medium N. 1) were from E. Merck Darmstadt FRG. GEL FIX polyester sheets were purchased from Serva Feinbiochemica Heidelberg. Phenolindo (2,6-dichlorophenol) came from BDH Chemicals Ltd. Poole, England.
IEF was made on gel slab using a LKB MULITPHOR 2117 cell and a Bio-Rad Power Supply Model 1420A. Slabs of 24.5×11.5 cm and 1 mm thickness were prepared on a sheet of GEL FIX. Polyacrylamide gels with a concentration of 8% T and with a cross-linkage of 4% C (30% T stock solution was prepared by dissolving 28.8 g of acrylamide and 1.2 g of bis-acrylamide in 100 ml distilled water), glycerol, 3.5% v/v, 2% AMPHOLINE, 0.05% ammonium persulphate as catalyst and 0.05% TEMED as accelerator. The carrier ampholite composition for 35 ml gelling solution was as follows:
The electrode solutions, as recommended by LKB for the respective pH range, were:
The gel was cooled to 4° C. with the aid of a LKB 2209 refrigerated constant temperature circulator. After prefocusing for 30 min. at 5 W, the samples (20 μl containing 0.2 to 2.5 μg of antibiotic) were loaded into the slot at the cathodic side. Electrofocusing was performed using 10 W constant power and was completed after 3-31/2 hours with a final potential of 1400 V.
The pH values were determined by dividing a portion of the gel into 1 cm sections, and eluting the individual pieces at room temperature with 1 ml of 10 mM KCl prior to pH readings.
The isoelectric point of each antibiotic was determined by interpolation on a curve obtained by plotting pH values versus the distance from the anode.
Polyacrylamide gel was placed on a 3 mm layer of agar medium N. 1 inoculated with 1% of Bacillus subtilis ATCC 6633 spore (0.5 OD at 600 nm). After 10 min the gel was removed and the plate was incubated overnight at 37° C. and examined for inhibition zones. The contrast between the area of lysis and that of bacterial growth was enhanced by use of Phenolindo(2,6-dichlorophenol) 1% w/v (oxidation-reduction indicator).

S. aureus Tour = assay: In vitro antibacterial activity, standard agar-dilution test (MIC); assay type: cell-based; details: inoculum about 10^4 CFU/ml, 18-24 h at 37° C.
Experimental: (§1) The culture medium ISOSENSITEST BROTH (Oxoid) and the colture medium TODD-[…] BROTH (Difco) are used for growing staphylococci and streptococci, respectively. Broth cultures are diluted so that the final inoculum is about 10^4 colony forming units/ml (CFU/ml).

S. faecalis ATCC 7080 = assay: as above; assay type: cell-based; details: inoculum about 10^4 CFU/ml, 18-24 h at 37° C.
Experimental: as §1

[2] = tested on: S. epidermidis ATCC 12228; assay: as above; assay type: cell-based; details: inoculum about 10^4 CFU/ml, 18-24 h at 37° C.
Experimental: as §1

[3] = tested on: Pseudomonas aeruginosa ATCC 10145; assay: as above; assay type: cell-based; details: inoculum about 10^4 CFU/ml, 18-24 h at 37° C.
Experimental: as §1

S. pneumoniae UC 41 = assay: as above; assay type: cell-based; details: inoculum about 10^4 CFU/ml, 18-24 h at 37° C.
Experimental: as §1

[4] = tested on: Proteus vulgaris X 19H ATCC 881; assay: as above; assay type: cell-based; details: inoculum about 10^4 CFU/ml, 18-24 h at 37° C.
Experimental: as §1

E. coli SKF 12140 = assay: as above; assay type: cell-based; details: inoculum about 10^4 CFU/ml, 18-24 h at 37° C.
Experimental: as §1

S. pyogenes C 203 = assay: as above; assay type: cell-based; details: inoculum about 10^4 CFU/ml, 18-24 h at 37° C.
Experimental: as §1

S. pyogenes L 49 = assay: In vivo test in mice experimentally infected with S. pyogenes L 49 (ED50); details: mice infected with S. pyogenes L 49; for ED50, route of administration os.: oral

Isoelectric point (pI) [1] | MIC S. aureus Tour (S. aureus Tour) | MIC S. faecalis ATCC 7080 (S. faecalis ATCC 7080) | MIC S. epidermidis ATCC 12228 [2] | MIC Pseudomonas aeruginosa ATCC 10145 [3] | MIC S. pneumoniae UC 41 (S. pneumoniae UC 41) | MIC Proteus vulgaris X 19H ATCC 881 [4] | MIC E. coli SKF 12140 (E. coli SKF 12140) | MIC S. pyogenes C 203 (S. pyogenes C 203) | Compound | ED50, route of administration os. (S. pyogenes L 49) | ED50, route of administration s.c (S. pyogenes L 49)
8.7 | – | – | – | – | – | – | – | – | CCCCCN(CCCCC)CCCNC(=O)C1NC(=O)C2NC(=O)C(NC(=O)C3NC(=O)C4NC(=O)C(Cc5ccc(c(Cl)c5)Oc5cc3cc(c5O)Oc3ccc(cc3Cl)C2OC2OC(CO)C(O)C(O)C2NC(C)=O)NC(=O)C(N)c2ccc(O)c(c2)Oc2cc(O)cc4c2)c2ccc(O)c(c2)-c2c(OC3OC(CO)C(O)C(O)C3O)cc(O)cc21 (stereo not shown) [Compound 43] | – | –
8.7 | – | – | – | – | – | – | – | – | CCCCCCN(CCCCCC)CCCNC(=O)C1NC(=O)C2NC(=O)C(NC(=O)C3NC(=O)C4NC(=O)C(Cc5ccc(c(Cl)c5)Oc5cc3cc(c5O)Oc3ccc(cc3Cl)C2OC2OC(CO)C(O)C(O)C2NC(C)=O)NC(=O)C(N)c2ccc(O)c(c2)Oc2cc(O)cc4c2)c2ccc(O)c(c2)-c2c(OC3OC(CO)C(O)C(O)C3O)cc(O)cc21 (stereo not shown) [Compound 44] | – | –
7.8 | – | – | – | – | – | – | – | – | COC(=O)CNC(=O)C1NC(=O)C2NC(=O)C(NC(=O)C3NC(=O)C4NC(=O)C(Cc5ccc(c(Cl)c5)Oc5cc3cc(c5O)Oc3ccc(cc3Cl)C2OC2OC(CO)C(O)C(O)C2NC(C)=O)NC(=O)C(N)c2ccc(O)c(c2)Oc2cc(O)cc4c2)c2ccc(O)c(c2)-c2c(OC3OC(CO)C(O)C(O)C3O)cc(O)cc21 (stereo not shown) [Compound 47] | – | –
5.8 | – | – | – | – | – | – | – | – | CC(=O)NC1C(OC2c3ccc(c(Cl)c3)Oc3cc4cc(c3O)Oc3ccc(cc3Cl)CC3NC(=O)C(N)c5ccc(O)c(c5)Oc5cc(O)cc(c5)C(NC3=O)C(=O)NC4C(=O)NC3C(=O)NC2C(=O)NC(C(=O)NCC(=O)O)c2cc(O)cc(O)c2-c2cc3ccc2O)OC(CO)C(O)C1O (stereo not shown) [Compound 56] | – | –
8.6 | – | – | – | – | – | – | – | – | CCCCCCN(CCCCCC)CCCNC(=O)C1NC(=O)C2NC(=O)C(NC(=O)C3NC(=O)C4NC(=O)C(Cc5ccc(c(Cl)c5)Oc5cc3cc(c5O)Oc3ccc(cc3Cl)C2O)NC(=O)C(N)c2ccc(O)c(c2)Oc2cc(O)cc4c2)c2ccc(O)c(c2)-c2c(O)cc(O)cc21 (stereo not shown) [Compound 62] | – | –
5.8 | – | – | – | – | – | – | – | – | NC1C(=O)NC2Cc3ccc(c(Cl)c3)Oc3cc4cc(c3O)Oc3ccc(cc3Cl)C(O)C3NC(=O)C(NC(=O)C4NC(=O)C(NC2=O)c2cc(O)cc(c2)Oc2cc1ccc2O)c1ccc(O)c(c1)-c1c(O)cc(O)cc1C(C(=O)NCC(=O)O)NC3=O (stereo not shown) [Compound 65] | – | –
– | 0.06 µg/mL | 0.12 µg/mL | 0.06 µg/mL | 64 µg/mL | 0.06 µg/mL | 32 µg/mL | 4 µg/mL | 0.06 µg/mL | CCN1CCCC1CNC(=O)C1NC(=O)C2NC(=O)C(NC(=O)C3NC(=O)C4NC(=O)C(Cc5ccc(c(Cl)c5)Oc5cc3cc(c5O)Oc3ccc(cc3Cl)C2O)NC(=O)C(N)c2ccc(O)c(c2)Oc2cc(O)cc4c2)c2ccc(O)c(c2)-c2c(O)cc(O)cc21.Cl.Cl (stereo not shown) [Compound 79] | > 300 mg/kg | 1.25 mg/kg
– | 0.06 µg/mL (≈ 0.0468 µM) | 0.12 µg/mL (≈ 0.0935 µM) | 0.06 µg/mL (≈ 0.0468 µM) | 64 µg/mL (≈ 49.9 µM) | 0.06 µg/mL (≈ 0.0468 µM) | 64 µg/mL (≈ 49.9 µM) | 8 µg/mL (≈ 6.23 µM) | 0.06 µg/mL (≈ 0.0468 µM) | CN(C)CCN(C)C(=O)C1NC(=O)C2NC(=O)C(NC(=O)C3NC(=O)C4NC(=O)C(Cc5ccc(c(Cl)c5)Oc5cc3cc(c5O)Oc3ccc(cc3Cl)C2O)NC(=O)C(N)c2ccc(O)c(c2)Oc2cc(O)cc4c2)c2ccc(O)c(c2)-c2c(O)cc(O)cc21 (stereo not shown) [Compound 93] | > 300 mg/kg | 1.25 mg/kg
– | 0.06 µg/mL | 0.12 µg/mL | 0.06 µg/mL | 16 µg/mL | 0.06 µg/mL | 32 µg/mL | 4 µg/mL | 0.06 µg/mL | CN(C)CCNC(=O)C1NC(=O)C2NC(=O)C(NC(=O)C3NC(=O)C4NC(=O)C(Cc5ccc(c(Cl)c5)Oc5cc3cc(c5O)Oc3ccc(cc3Cl)C2O)NC(=O)C(N)c2ccc(O)c(c2)Oc2cc(O)cc4c2)c2ccc(O)c(c2)-c2c(O)cc(O)cc21.Cl.Cl (stereo not shown) [Compound 94] | > 300 mg/kg | 1.25 mg/kg
– | 0.12 µg/mL | 0.12 µg/mL | 0.06 µg/mL | 32 µg/mL | 0.12 µg/mL | 32 µg/mL | 8 µg/mL | 0.06 µg/mL | CN(C)CCCCNC(=O)C1NC(=O)C2NC(=O)C(NC(=O)C3NC(=O)C4NC(=O)C(Cc5ccc(c(Cl)c5)Oc5cc3cc(c5O)Oc3ccc(cc3Cl)C2O)NC(=O)C(N)c2ccc(O)c(c2)Oc2cc(O)cc4c2)c2ccc(O)c(c2)-c2c(O)cc(O)cc21.O=C(O)C(F)(F)F.O=C(O)C(F)(F)F (stereo not shown) [Compound 97] | > 300 mg/kg | 0.54 mg/kg
– | 0.06 µg/mL (≈ 0.0473 µM) | 0.12 µg/mL (≈ 0.0946 µM) | 0.06 µg/mL (≈ 0.0473 µM) | 32 µg/mL (≈ 25.2 µM) | 0.12 µg/mL (≈ 0.0946 µM) | 32 µg/mL (≈ 25.2 µM) | 8 µg/mL (≈ 6.3 µM) | 0.06 µg/mL (≈ 0.0473 µM) | NCCCCNC(=O)C1NC(=O)C2NC(=O)C(NC(=O)C3NC(=O)C4NC(=O)C(Cc5ccc(c(Cl)c5)Oc5cc3cc(c5O)Oc3ccc(cc3Cl)C2O)NC(=O)C(N)c2ccc(O)c(c2)Oc2cc(O)cc4c2)c2ccc(O)c(c2)-c2c(O)cc(O)cc21 (stereo not shown) [Compound 99] | – | –
9.0 | 0.06 µg/mL (≈ 0.0458 µM) | 0.12 µg/mL (≈ 0.0915 µM) | 0.06 µg/mL (≈ 0.0458 µM) | 64 µg/mL (≈ 48.8 µM) | 0.12 µg/mL (≈ 0.0915 µM) | 128 µg/mL (≈ 97.6 µM) | 8 µg/mL (≈ 6.1 µM) | 0.06 µg/mL (≈ 0.0458 µM) | CN(C)CCCCCNC(=O)C1NC(=O)C2NC(=O)C(NC(=O)C3NC(=O)C4NC(=O)C(Cc5ccc(c(Cl)c5)Oc5cc3cc(c5O)Oc3ccc(cc3Cl)C2O)NC(=O)C(N)c2ccc(O)c(c2)Oc2cc(O)cc4c2)c2ccc(O)c(c2)-c2c(O)cc(O)cc21 (stereo not shown) [Compound 100] | – | –
– | 0.06 µg/mL (≈ 0.0463 µM) | 0.12 µg/mL (≈ 0.0925 µM) | 0.06 µg/mL (≈ 0.0463 µM) | 64 µg/mL (≈ 49.3 µM) | 0.06 µg/mL (≈ 0.0463 µM) | 64 µg/mL (≈ 49.3 µM) | 4 µg/mL (≈ 3.08 µM) | 0.06 µg/mL (≈ 0.0463 µM) | NCCCCCCNC(=O)C1NC(=O)C2NC(=O)C(NC(=O)C3NC(=O)C4NC(=O)C(Cc5ccc(c(Cl)c5)Oc5cc3cc(c5O)Oc3ccc(cc3Cl)C2O)NC(=O)C(N)c2ccc(O)c(c2)Oc2cc(O)cc4c2)c2ccc(O)c(c2)-c2c(O)cc(O)cc21 (stereo not shown) [Compound 102] | – | –
– | 2 µg/mL (≈ 1.42 µM) | 1 µg/mL (≈ 0.709 µM) | 0.5 µg/mL (≈ 0.354 µM) | 128 µg/mL (≈ 90.7 µM) | 0.5 µg/mL (≈ 0.354 µM) | > 128 µg/mL | 64 µg/mL (≈ 45.4 µM) | 0.5 µg/mL (≈ 0.354 µM) | CCCCOC(=O)C(CCCNC(=N)N)NC(=O)C1NC(=O)C2NC(=O)C(NC(=O)C3NC(=O)C4NC(=O)C(Cc5ccc(c(Cl)c5)Oc5cc3cc(c5O)Oc3ccc(cc3Cl)C2O)NC(=O)C(N)c2ccc(O)c(c2)Oc2cc(O)cc4c2)c2ccc(O)c(c2)-c2c(O)cc(O)cc21 (stereo not shown) [Compound 103] | – | –
